Two compounds from patent US10000535B2, “Template-fixed peptidomimetics” (POLYPHOR LTD., priority 2007, dated 2018) can be followed below.

Molecules are shown by their SMILES. Non-standard residues stand in square brackets, D forms with d. Residues, ends and D or L forms follow the SMILES beside them. Aze = O=C(O)[C@@H]1CCN1

Holding throughout (format): cell-based
In one experiment the target is T1, human CCR10 (Homo sapiens, UniProt P46092).
T1 construct: expressed in transfected cells; host or cells: mouse pre-B cell line 300-19
T1 sequence (P46092 1-362): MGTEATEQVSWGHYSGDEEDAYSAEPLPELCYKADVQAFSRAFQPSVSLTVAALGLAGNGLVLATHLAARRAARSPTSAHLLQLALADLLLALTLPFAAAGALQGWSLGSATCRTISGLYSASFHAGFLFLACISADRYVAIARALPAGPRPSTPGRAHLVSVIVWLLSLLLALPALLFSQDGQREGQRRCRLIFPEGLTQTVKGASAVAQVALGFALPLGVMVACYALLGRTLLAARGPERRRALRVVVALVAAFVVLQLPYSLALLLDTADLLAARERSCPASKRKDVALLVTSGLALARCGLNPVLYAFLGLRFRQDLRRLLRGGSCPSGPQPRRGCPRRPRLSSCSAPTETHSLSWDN
Nature of the experiment: Calcium flux antagonism assay with human CCL27. Particulars: at 10 μM. The method, then: (§1) The mouse pre-B cell line 300-19 was stably transfected with the cDNA encoding the human UTR2 receptor (GenBank Acc#NM_018949), and expression was confirmed with a positive calcium signal in response to human urotensin (Sigma Aldrich). Increases in intracellular calcium were monitored using a Flexstation 384 (Molecular Devices, Sunnyvale, Calif.). The cells were batch loaded with the Calcium 3 Assay kit (Molecular Devices) in assay buffer (Hanks Balanced salt solution, HBSS, 20 mM HEPES, pH 7.4, 0.1% BSA) for 1 h at room temperature and labeled cells were dispensed into either black 96 well or 384 well assay plates (Greiner). Calcium mobilization induced by urotensin or compounds was measured in the Flexstation 384 (excitation, […]) for 70 seconds. Agonist activity was determined by direct addition of ligand or peptides, while antagonists were identified by pre-incubation of compounds with cells prior to urotensin addition. A dose response curve (compound concentration versus % maximum response for urotensin) was determined for each active agonist and antagonist and was fitted to a four parameter logistic equation using SoftmaxPro 4.6 (Molecular Devices), from which EC50% and IC50% values were calculated.
Peptides for CCR10 (Marchese et. al. 1994, Homey et. al.) and CXCR3 (Loetscher et. al. 1998, Marchese et. al. 1995) antagonism were assayed in a mouse pre-B cell line 300-19 stably transfected with either human CCR10 or CXCR3 (Marchese et. al. 1995). Antagonism at each receptor was measured with a calcium flux assay in these cells as described above for UTR2 assays using human CCL27 and human CXCL10 (Cole et. al.) for CCR10 and CXCR3 respectively.
(§2) Selectivity was measured using the calcium flux assay on a panel of human chemokine receptor bearing cell lines (CCR1, CCR2, CCR3, CCR4, CCR5, CCR6, CCR7, CCR8, CCR9, CCR10, CXCR1, CXCR2, CXCR2, CXCR4, CXCR6 and CXCCR1) using the same method as above
On the technique in general: A change in cytosolic calcium serves as a functional read-out for many receptors and channels.

The target in the next experiment is CCR2 (Homo sapiens, UniProt P41597). The experiment can be described thus: Selectivity calcium flux assay, chemokine receptor panel. Conditions: at 10 μM. The method, then:
as §2

In another experiment the target is T2, CXCR1 (Homo sapiens, UniProt P25024).
T2 sequence (P25024 1-350): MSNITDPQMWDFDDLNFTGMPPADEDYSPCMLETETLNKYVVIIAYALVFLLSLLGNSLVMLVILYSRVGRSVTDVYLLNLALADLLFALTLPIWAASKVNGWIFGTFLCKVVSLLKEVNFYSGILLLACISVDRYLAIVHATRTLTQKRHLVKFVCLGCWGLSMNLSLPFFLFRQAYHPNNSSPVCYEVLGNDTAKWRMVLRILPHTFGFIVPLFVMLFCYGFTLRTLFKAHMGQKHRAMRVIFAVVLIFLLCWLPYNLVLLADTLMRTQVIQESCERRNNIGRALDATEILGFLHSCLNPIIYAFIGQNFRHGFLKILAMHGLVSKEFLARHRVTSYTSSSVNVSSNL
Described as above. Conditions: at 10 μM. The method, then: as §2

The target in the next experiment is T3, CCR6 (Homo sapiens, UniProt P51684).
T3 sequence (P51684 1-374): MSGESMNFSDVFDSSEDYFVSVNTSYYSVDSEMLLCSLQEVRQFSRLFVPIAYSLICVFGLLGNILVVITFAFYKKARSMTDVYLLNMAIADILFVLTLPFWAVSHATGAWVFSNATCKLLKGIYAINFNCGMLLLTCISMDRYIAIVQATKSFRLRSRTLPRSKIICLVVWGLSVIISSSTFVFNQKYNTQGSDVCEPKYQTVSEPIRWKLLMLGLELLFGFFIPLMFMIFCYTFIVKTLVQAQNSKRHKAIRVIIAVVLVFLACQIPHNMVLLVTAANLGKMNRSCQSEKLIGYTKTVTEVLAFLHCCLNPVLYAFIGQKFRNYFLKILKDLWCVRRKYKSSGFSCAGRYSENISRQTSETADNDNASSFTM
The experiment is described as above. Particulars: at 10 μM. The method, then:
as §2

The next experiment has as its target T4, CXCCR1 (Homo sapiens, UniProt P49238).
T4 sequence (P49238 1-355): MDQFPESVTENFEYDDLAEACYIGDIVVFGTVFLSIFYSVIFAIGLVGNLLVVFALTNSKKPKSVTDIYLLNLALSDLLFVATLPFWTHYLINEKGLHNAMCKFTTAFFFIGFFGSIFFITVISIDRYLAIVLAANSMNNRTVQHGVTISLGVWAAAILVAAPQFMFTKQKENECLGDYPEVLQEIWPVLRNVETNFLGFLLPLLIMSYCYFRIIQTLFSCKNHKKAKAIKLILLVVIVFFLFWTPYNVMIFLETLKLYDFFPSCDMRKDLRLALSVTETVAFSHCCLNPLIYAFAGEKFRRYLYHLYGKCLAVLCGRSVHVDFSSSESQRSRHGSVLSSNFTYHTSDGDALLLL
The experiment is described as above. Particulars: at 10 μM. The method, then:
as §2

The target of another experiment is T5, human CXCR3 (Homo sapiens, UniProt P49682).
T5 construct: expressed in transfected cells; host or cells: mouse pre-B cell line 300-19
T5 sequence (P49682 1-368): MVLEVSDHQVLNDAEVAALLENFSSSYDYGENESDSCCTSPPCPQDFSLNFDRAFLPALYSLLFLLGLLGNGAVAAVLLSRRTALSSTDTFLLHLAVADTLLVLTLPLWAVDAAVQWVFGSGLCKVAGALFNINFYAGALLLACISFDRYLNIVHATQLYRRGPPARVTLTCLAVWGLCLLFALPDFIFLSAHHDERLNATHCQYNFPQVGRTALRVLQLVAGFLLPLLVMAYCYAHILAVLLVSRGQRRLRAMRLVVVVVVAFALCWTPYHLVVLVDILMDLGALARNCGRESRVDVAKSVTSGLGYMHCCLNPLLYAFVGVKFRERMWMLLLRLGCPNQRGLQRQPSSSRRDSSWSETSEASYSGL
The experiment can be described thus: Calcium flux antagonism assay with human CXCL10. Particulars: 300-19 cells with human CXCR3, read-out: IC50% (μM) ± SD, CXCR3 receptor. The method, then: as §1, with “calculated. […]” for “calculated.”

Sequence of CCR2 (P41597 whole entry): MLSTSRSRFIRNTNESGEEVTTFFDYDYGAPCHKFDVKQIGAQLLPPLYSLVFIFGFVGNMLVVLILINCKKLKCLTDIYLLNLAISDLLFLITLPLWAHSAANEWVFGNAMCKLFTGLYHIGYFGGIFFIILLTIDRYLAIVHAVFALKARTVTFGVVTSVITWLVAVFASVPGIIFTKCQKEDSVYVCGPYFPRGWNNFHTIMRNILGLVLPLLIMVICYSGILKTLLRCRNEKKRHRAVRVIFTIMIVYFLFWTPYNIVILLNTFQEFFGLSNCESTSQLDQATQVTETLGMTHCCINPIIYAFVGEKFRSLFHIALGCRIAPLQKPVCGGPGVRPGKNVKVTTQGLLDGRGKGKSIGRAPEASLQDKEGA

As usually defined, the IC50 is the concentration that inhibits the measured activity by half. On to `N=C(N)NCCC[C@@H]1NC(=O)[C@H](Cc2c[nH]c3ccccc23)NC(=O)[C@H](Cc2ccc(O)cc2)NC(=O)[C@@H]2CCN2C(=O)[C@H]2CCCN2C(=O)CNC1=O` [Example 15] (cyclo(YWRG[dP][Aze])), for which the “selectivity against CCR10” value on human CCR10 is given as “highly selective”. Besides, on CCR2, the “selectivity against CCR2” value is “highly selective”. Moreover, the “selectivity against CXCR1” value at CXCR1 is “highly selective”. For the same compound, the “selectivity against CCR6” value on CCR6 was “highly selective”. In addition, the “selectivity against CXCCR1” value on CXCCR1 is listed as “highly selective”. Further, the IC50 at human CXCR3 was 8.6 µM.

With `C[C@@H]1NC(=O)[C@H](CCCNC(=N)N)NC(=O)[C@H](Cc2c[nH]c3ccccc23)NC(=O)[C@H](Cc2ccc(O)cc2)NC(=O)[C@@H]2CCN2C(=O)[C@H]2CCCN2C1=O` [Example 16] (cyclo(YWRA[dP][Aze])), the “selectivity against CCR10” value on human CCR10 was “highly selective”. Further, the “selectivity against CCR2” value on CCR2 is “highly selective”. The “selectivity against CXCR1” value on CXCR1 is listed as “highly selective”. The “selectivity against CCR6” value on CCR6 is listed as “highly selective”. The “selectivity against CXCCR1” value on CXCCR1 is “highly selective”. Besides, the IC50 at human CXCR3 was 8.1 µM.
